Source: paper PMC12022909, “A Multicomponent Reaction-Based Platform Opens New Avenues in Aryl Hydrocarbon Receptor Modulation” (ACS Central Science, 2025)

Experiments:
AhR-GFP = molecular target: T1, AhR-GFP (Homo sapiens, UniProt P35869); assay: MCF7 AhR-GFP.IRES.mCherry reporter, flow cytometry quantification of AhR protein levels; type: cell-based; settings: 5 μM, 5 h
T1 construct: host or cells: MCF7, lentiviral transduction
Experimental: Figure 6 Bifunctional AhR probes and AhR reporter in MCF7 cells. (a) Synthetic access to the conjugatable AhR ligand 5m. (b) Structure, yield, and EC50 value of the model amide 12a and MD simulation of AhR with 12a (last snapshot). (c) PROTAC-like compound 12b and dual probes 12c–d. Reaction conditions: (a) 5m (1 equiv), amine (1 equiv), HATU, DIPEA, DMF, rt, 24 h, Ar atm; (b) 5m (2 equiv), diamine (1 equiv), HATU, DIPEA, DMF, rt, 24 h, Ar atm. (d) General setup of the reporter system for quantifying AhR protein levels. (e) The population of MCF7 reporter cells (MCF7 AhR-GFP.IRES.mCherry) gated by flow cytometry and used for quantification of AhR. […] Values represent the ratio of the geometric mean of GFP and mCherry values in the gated population. (g) Change in protein levels relative to vehicle treatment (DMSO) in MCF7 cells treated with 12b at 10 μM for 5 h quantified by TMT labeling and LC/MS analysis versus p-Value. TEXT PRINTED IN THE PICTURE: (b) 12a: EC50 = 0.40 μM […]
To test the effect of these compounds on AhR abundance, we established a cellular reporter in the breast cancer cell line MCF7. AhR in this case is fused to GFP bearing an independently translated mCherry on the same transcript to allow correction for general transcriptional interference of treatments (Figure 6d,e). […]

HaCaT cells = assay: UVA phototoxicity, caspase 3 activity in HaCaT cells; type: cell-based, human; settings: for UVA radiation-induced caspase activity (phototoxicity): HaCaT, 1 h, UVA 5 J/cm2
Experimental: Irradiation with UVA and caspase 3 activity measurement […]
culture media was exchanged with PBS and the cells were sham or UVA (5 J/cm2) irradiated using the BS-02 irradiation chamber (Opsytec Dr. Gröbel, Ettlingen Germany). Media was added to the cells and after 4 h incubation, caspase 3 activity was measured as described previously.[33] Protein quantification was done with the Bio-Rad DC protein assay kit (Bio-Rad Laboratories, Hercules, CA) according to the manufacturer protocol.
We compared the phototoxic potential of five of our test compounds (8, 10, 5b, 5h, 4b) as well as the FDA-approved AhR activator […]
induced caspase activity at a concentration of 100 nM (Figure S36A). At a 10-fold higher concentration (1 µM) two of the test compounds […]
Figure S36. […] For statistical analysis a two-way ANOVA (Tukey post-hoc) was performed and data are shown as mean ± SEM. (*, p ≤ 0.05). […]

T1 sequence (P35869 11-848): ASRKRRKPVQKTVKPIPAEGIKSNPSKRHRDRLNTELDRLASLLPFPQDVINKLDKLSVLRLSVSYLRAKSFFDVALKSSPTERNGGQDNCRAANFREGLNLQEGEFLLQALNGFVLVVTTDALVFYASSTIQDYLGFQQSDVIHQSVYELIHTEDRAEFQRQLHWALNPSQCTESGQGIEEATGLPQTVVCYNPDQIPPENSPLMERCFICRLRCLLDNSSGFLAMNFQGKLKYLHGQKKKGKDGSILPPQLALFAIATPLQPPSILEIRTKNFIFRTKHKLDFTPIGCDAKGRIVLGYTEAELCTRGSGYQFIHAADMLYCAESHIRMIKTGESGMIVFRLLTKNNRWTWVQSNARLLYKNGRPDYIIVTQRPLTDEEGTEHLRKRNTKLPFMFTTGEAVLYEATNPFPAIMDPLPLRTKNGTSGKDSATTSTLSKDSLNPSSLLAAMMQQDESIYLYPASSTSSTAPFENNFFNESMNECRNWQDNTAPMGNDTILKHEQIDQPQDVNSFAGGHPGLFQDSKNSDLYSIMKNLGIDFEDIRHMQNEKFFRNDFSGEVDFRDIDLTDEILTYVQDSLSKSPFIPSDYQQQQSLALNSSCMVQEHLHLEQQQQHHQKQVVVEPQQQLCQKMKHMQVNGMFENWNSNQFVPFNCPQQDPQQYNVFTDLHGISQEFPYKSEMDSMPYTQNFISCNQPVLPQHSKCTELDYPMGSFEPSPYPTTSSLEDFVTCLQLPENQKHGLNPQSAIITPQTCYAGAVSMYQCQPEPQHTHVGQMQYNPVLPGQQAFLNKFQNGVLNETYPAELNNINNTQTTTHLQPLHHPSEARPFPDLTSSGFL
T1 sequence (P08238 whole entry partner): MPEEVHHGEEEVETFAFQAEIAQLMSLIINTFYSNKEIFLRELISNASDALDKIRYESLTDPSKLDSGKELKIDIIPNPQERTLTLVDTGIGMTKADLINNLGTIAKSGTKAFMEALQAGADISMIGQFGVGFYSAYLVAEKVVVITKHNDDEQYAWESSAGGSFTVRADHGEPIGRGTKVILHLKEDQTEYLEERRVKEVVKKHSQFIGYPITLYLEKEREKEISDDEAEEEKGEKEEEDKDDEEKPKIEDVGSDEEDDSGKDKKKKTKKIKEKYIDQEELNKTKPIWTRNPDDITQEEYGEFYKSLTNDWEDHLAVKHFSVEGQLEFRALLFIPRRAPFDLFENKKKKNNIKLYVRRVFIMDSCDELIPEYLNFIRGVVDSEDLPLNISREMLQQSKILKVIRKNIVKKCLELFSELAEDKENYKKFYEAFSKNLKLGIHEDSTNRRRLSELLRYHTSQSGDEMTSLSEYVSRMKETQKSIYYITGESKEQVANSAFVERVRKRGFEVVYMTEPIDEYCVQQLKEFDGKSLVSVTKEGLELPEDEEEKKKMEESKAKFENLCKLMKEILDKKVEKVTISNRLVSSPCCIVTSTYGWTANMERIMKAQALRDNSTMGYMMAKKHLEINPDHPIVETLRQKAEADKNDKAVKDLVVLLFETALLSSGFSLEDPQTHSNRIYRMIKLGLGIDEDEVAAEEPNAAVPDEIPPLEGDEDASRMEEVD
T1 sequence (O00170 whole entry partner): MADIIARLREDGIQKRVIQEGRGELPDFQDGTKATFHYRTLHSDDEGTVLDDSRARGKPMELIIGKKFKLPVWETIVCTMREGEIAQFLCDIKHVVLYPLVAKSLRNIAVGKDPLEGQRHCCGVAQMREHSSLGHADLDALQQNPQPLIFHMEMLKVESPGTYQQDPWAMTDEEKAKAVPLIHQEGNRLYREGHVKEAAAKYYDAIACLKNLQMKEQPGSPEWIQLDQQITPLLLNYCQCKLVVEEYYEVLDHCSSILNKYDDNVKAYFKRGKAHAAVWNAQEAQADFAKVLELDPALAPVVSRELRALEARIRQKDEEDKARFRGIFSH

Row | AhR degradation in reporter system (AhR-GFP) | SMILES | overlap between effective and toxic concentrations (HaCaT cells) | UVA radiation-induced caspase activity (phototoxicity) (HaCaT cells; 100 nM) | UVA radiation-induced caspase activity (phototoxicity) (HaCaT cells; 1 µM)
1 | pronounced AhR degradation | Cc1[nH]c2ccccc2c1-c1c2[nH]c3ccccc3c2cc2[nH]c3ccccc3c12 [5e] |  |  | 
2 |  | CCOc1c2[nH]c3ccccc3c2cc2[nH]c3ccccc3c12 [compound 8, 6-ethoxy-ICZ] | minimal overlap | neither tapinarof nor our 6-ICZ compounds enhanced | exhibited similar effects to FICZ
